From patent US7208266B2, “Endogenous coagulation activator compounds —use in exploring endogenous coagulation” (Societe Diagnostica-Stago, priority 2001, dated 2007)

How the values were obtained:
Format in all cases: biochemical
endogenous coagulation [1] = test: APTT coagulation time, reagents from amides or esters of gallic acid (Example 2); conditions: for Coagulation time, CCN / Coagulation time, CCP / Coagulation time, Heparins Batch 0811 / Coagulation time, Heparins Batch 1706 / Coagulation time, Lupus Batch 021 / Coagulation time, Pool N LIK 800: gallic acid derivative 100 μM
Description: Thus, the invention also concerns a method for measuring the activated partial thromoboplastin time (APTT) comprising the steps of: • bringing a platelet-depleted plasma sample into contact with compounds or compositions in accordance with the invention, in the presence of substitutes for the phospholipids of the platelet membrane, under conditions that allow activation of the endogenous coagulation pathway; • adding Ca^2+ ions in a quantity equivalent to the quantity of these ions that have been complexed in the plasma sample; • measuring the time required to transform fibrinogen into fibrin.
In particular, within the context of carrying out the above method, the plasma sample is constituted by a platelet-depleted plasma and a coagulation activator is incubated with the plasma for a period of about 2 to 5 minutes, at 37° C. The phospholipid membrane substitutes are either added from the start of the reaction, or mixed with the activator, or added individually during the reaction.
Then the calcium ions are added, for example in the form of calcium chloride in a concentration in the range 20 mM to 25 mM. The time required for fibrin formation is then measured.
In the next example, the coagulation times for different plasmas were determined from APTT reagents obtained from amides or esters of gallic acid. • normal plasmas=pool of equivalent quantities of plasmas from normal subjects; • CCN=coag. control normal: control plasma, normal level; • CCP=coag. control patho: control plasma, disease level; • heparins=plasmas from patient receiving an anticoagulating treatment based on non-fractionated heparin in the form of sodium or calcium salts; • lupus=plasma from a patient presenting with Lupus anticoagulant Syndrome; • def.f VIIIc=plasma from a patient presenting with a f VIIIc deficit (haemophilia A).

endogenous coagulation [2] = test: APTT coagulation time, activation kinetics of ethylene glycol gallate heated at 80° C. (Example 3); conditions: 500 μM in solution buffered to pH 7.00, after heating for 24 hours at 80° C.
Experimental: After heating for 24 hours at 80° C., 500 μM of ethylene glycol gallate in solution buffered to a pH of 7.00 became active in an APTT coagulation test.
The procoagulating activity of the ethylene glycol gallate solution was compared with that of a reference reagent: CK-PREST, an APTT reagent in which the activator is kaolin. The instrument used to measure the coagulation time was an automated STA Diagnostica Stago haemostasis instrument (series n° 307).
The test plasmas were quality control plasmas:
CCN=coag control normal; CCP=coag control patho, batch n° 980901.
APTT reagent produced=ethylene glycol gallate, 500 μM, oxidised at 80° C.+Tricine, […], pH 7.00+cephaline (substitute for platelet phospholipids).

endogenous coagulation [3] = test: APTT coagulation time versus ethylene glycol gallate concentration (Example 6)
Experimental: The coagulating activity of an APTT reagent requires the joint action of two active principles: • a molecule activating the contact phase of the endogenous pathway. In fact, this was ethylene glycol gallate activated by heating to 80° C.; • a substitute for the phospholipids of the platelet membrane, cephaline, obtained by extracting rabbit brains with chloroform;
Optimum activity of the APTT reagent thus constituted depends on the concentrations of ethylene glycol gallate and cephaline.
The following tables show the results obtained for representative plasmas for different disorders and for some controls.

endogenous coagulation [4] = test: APTT coagulation time, reagents from amides or esters of gallic acid (Example 2); conditions: gallic acid derivative 100 μM
[5] = Ethylene Glycol gallate 1000 μM

O=C(OCCO)c1cc(O)c(O)c(O)c1 [ethylene glycol gallate]
Coagulation times compared with the reference reagent, CK-Prest (endogenous coagulation [1]; all plasmas of the table, derivative 100 μM): nearest results to those obtained with the reference reagent | Coagulation time, CCN (endogenous coagulation [1]): 32.7 s | Coagulation time, CCP (endogenous coagulation [1]): 50.5 s | Coagulation time, Heparins Batch 0811 (endogenous coagulation [1]): 112.5 s | Coagulation time, Heparins Batch 1706 (endogenous coagulation [1]): 65.7 s | Coagulation time, Lupus Batch 021 (endogenous coagulation [1]): 45.7 s | Coagulation time, Pool N LIK 800 (endogenous coagulation [1]): 37.4 s | Activity in an APTT coagulation test (endogenous coagulation [2]): became active | Coagulation time Control batch n° 80901 Normal (endogenous coagulation [3]; Ethylene Glycol gallate 10 μM): 130.6 s | Coagulation time Control batch n° 80901 Path (endogenous coagulation [3]; Ethylene Glycol gallate 10 μM): >140.0 s | Coagulation time Plasma (LA) MA 030 (endogenous coagulation [3]; Ethylene Glycol gallate 10 μM): >140.0 s | Coagulation time Plasma def f VIIIc (endogenous coagulation [3]; Ethylene Glycol gallate 10 μM): 121.9 s | Coagulation time Plasmas Heparins Batch 1635 (endogenous coagulation [3]; Ethylene Glycol gallate 10 μM): >140.0 s | Coagulation time Plasmas Heparins Batch 1726 (endogenous coagulation [3]; Ethylene Glycol gallate 10 μM): >140.0 s | Coagulation time Control batch n° 80901 Normal (endogenous coagulation [3]; Ethylene Glycol gallate 25 μM): 124.5 s | Coagulation time Control batch n° 80901 Path (endogenous coagulation [3]; Ethylene Glycol gallate 25 μM): 103.3 s | Coagulation time Plasma (LA) MA 030 (endogenous coagulation [3]; Ethylene Glycol gallate 25 μM): 103.3 s | Coagulation time Plasma def f VIIIc (endogenous coagulation [3]; Ethylene Glycol gallate 25 μM): 73.1 s | Coagulation time Plasmas Heparins Batch 1635 (endogenous coagulation [3]; Ethylene Glycol gallate 25 μM): >140.0 s | Coagulation time Plasmas Heparins Batch 1726 (endogenous coagulation [3]; Ethylene Glycol gallate 25 μM): >140.0 s | Coagulation time Control batch n° 80901 Normal (endogenous coagulation [3]; Ethylene Glycol gallate 50 μM): 88.6 s | Coagulation time Control batch n° 80901 Path (endogenous coagulation [3]; Ethylene Glycol gallate 50 μM): 99.6 s | Coagulation time Plasma (LA) MA 030 (endogenous coagulation [3]; Ethylene Glycol gallate 50 μM): 66.6 s | Coagulation time Plasma def f VIIIc (endogenous coagulation [3]; Ethylene Glycol gallate 50 μM): 44.8 s | Coagulation time Plasmas Heparins Batch 1635 (endogenous coagulation [3]; Ethylene Glycol gallate 50 μM): 73.1 s | Coagulation time Plasmas Heparins Batch 1726 (endogenous coagulation [3]; Ethylene Glycol gallate 50 μM): >140.0 s | Coagulation time Control batch n° 80901 Normal (endogenous coagulation [3]; Ethylene Glycol gallate 75 μM): 46.5 s | Coagulation time Control batch n° 80901 Path (endogenous coagulation [3]; Ethylene Glycol gallate 75 μM): 67.4 s | Coagulation time Plasma (LA) MA 030 (endogenous coagulation [3]; Ethylene Glycol gallate 75 μM): 50.4 s | Coagulation time Plasma def f VIIIc (endogenous coagulation [3]; Ethylene Glycol gallate 75 μM): 38.6 s | Coagulation time Plasmas Heparins Batch 1635 (endogenous coagulation [3]; Ethylene Glycol gallate 75 μM): 48.3 s | Coagulation time Plasmas Heparins Batch 1726 (endogenous coagulation [3]; Ethylene Glycol gallate 75 μM): 86.6 s | Coagulation time Control batch n° 80901 Normal (endogenous coagulation [3]; Ethylene Glycol gallate 100 μM): 38.4 s | Coagulation time Control batch n° 80901 Path (endogenous coagulation [3]; Ethylene Glycol gallate 100 μM): 46.2 s | Coagulation time Plasma (LA) MA 030 (endogenous coagulation [3]; Ethylene Glycol gallate 100 μM): 47.5 s | Coagulation time Plasma def f VIIIc (endogenous coagulation [3]; Ethylene Glycol gallate 100 μM): 38.2 s | Coagulation time Plasmas Heparins Batch 1635 (endogenous coagulation [3]; Ethylene Glycol gallate 100 μM): 48.0 s | Coagulation time Plasmas Heparins Batch 1726 (endogenous coagulation [3]; Ethylene Glycol gallate 100 μM): 80.0 s | Coagulation time Control batch n° 80901 Normal (endogenous coagulation [3]; Ethylene Glycol gallate 200 μM): 35.2 s | Coagulation time Control batch n° 80901 Path (endogenous coagulation [3]; Ethylene Glycol gallate 200 μM): 42.5 s | Coagulation time Plasma (LA) MA 030 (endogenous coagulation [3]; Ethylene Glycol gallate 200 μM): 46.7 s | Coagulation time Plasma def f VIIIc (endogenous coagulation [3]; Ethylene Glycol gallate 200 μM): 37.7 s | Coagulation time Plasmas Heparins Batch 1635 (endogenous coagulation [3]; Ethylene Glycol gallate 200 μM): 48.5 s | Coagulation time Plasmas Heparins Batch 1726 (endogenous coagulation [3]; Ethylene Glycol gallate 200 μM): 75.4 s | Coagulation time Control batch n° 80901 Normal (endogenous coagulation [3]; Ethylene Glycol gallate 300 μM): 34.3 s | Coagulation time Control batch n° 80901 Path (endogenous coagulation [3]; Ethylene Glycol gallate 300 μM): 39.6 s | Coagulation time Plasma (LA) MA 030 (endogenous coagulation [3]; Ethylene Glycol gallate 300 μM): 44.2 s | Coagulation time Plasma def f VIIIc (endogenous coagulation [3]; Ethylene Glycol gallate 300 μM): 37.5 s | Coagulation time Plasmas Heparins Batch 1635 (endogenous coagulation [3]; Ethylene Glycol gallate 300 μM): 47.7 s | Coagulation time Plasmas Heparins Batch 1726 (endogenous coagulation [3]; Ethylene Glycol gallate 300 μM): 73.7 s | Coagulation time Control batch n° 80901 Normal (endogenous coagulation [3]; Ethylene Glycol gallate 400 μM): 32.9 s | Coagulation time Control batch n° 80901 Path (endogenous coagulation [3]; Ethylene Glycol gallate 400 μM): 39.6 s | Coagulation time Plasma (LA) MA 030 (endogenous coagulation [3]; Ethylene Glycol gallate 400 μM): 43.4 s | Coagulation time Plasma def f VIIIc (endogenous coagulation [3]; Ethylene Glycol gallate 400 μM): 37.2 s | Coagulation time Plasmas Heparins Batch 1635 (endogenous coagulation [3]; Ethylene Glycol gallate 400 μM): 47.0 s | Coagulation time Plasmas Heparins Batch 1726 (endogenous coagulation [3]; Ethylene Glycol gallate 400 μM): 75.1 s | Coagulation time Control batch n° 80901 Normal (endogenous coagulation [3]; Ethylene Glycol gallate 500 μM): 32.6 s | Coagulation time Control batch n° 80901 Path (endogenous coagulation [3]; Ethylene Glycol gallate 500 μM): 48.5 s | Coagulation time Plasma (LA) MA 030 (endogenous coagulation [3]; Ethylene Glycol gallate 500 μM): 43.0 s | Coagulation time Plasma def f VIIIc (endogenous coagulation [3]; Ethylene Glycol gallate 500 μM): 37.5 s | Coagulation time Plasmas Heparins Batch 1635 (endogenous coagulation [3]; Ethylene Glycol gallate 500 μM): 47.3 s | Coagulation time Plasmas Heparins Batch 1726 (endogenous coagulation [3]; Ethylene Glycol gallate 500 μM): 76.1 s | Coagulation time Control batch n° 80901 Normal (endogenous coagulation [3]; [5]): 33.4 s | Coagulation time Control batch n° 80901 Path (endogenous coagulation [3]; [5]): 51.5 s | Coagulation time Plasma (LA) MA 030 (endogenous coagulation [3]; [5]): 42.5 s | Coagulation time Plasma def f VIIIc (endogenous coagulation [3]; [5]): 37.1 s | Coagulation time Plasmas Heparins Batch 1635 (endogenous coagulation [3]; [5]): 47.9 s | Coagulation time Plasmas Heparins Batch 1726 (endogenous coagulation [3]; [5]): 76.3 s | Coagulation time, f VII def 25% (endogenous coagulation [4]): 35.6 s

ethylene diamine gallate [H2N—(CH2)n—NH2 n=2]
Coagulation time, CCN (endogenous coagulation [1]): 138.1 s | Coagulation time, CCP (endogenous coagulation [1]): 177.9 s | Coagulation time, Heparins Batch 0811 (endogenous coagulation [1]): >300.0 s | Coagulation time, Heparins Batch 1706 (endogenous coagulation [1]): 228.4 s | Coagulation time, Lupus Batch 021 (endogenous coagulation [1]): 167.6 s | Coagulation time, Pool N LIK 800 (endogenous coagulation [1]): 111.5 s | Coagulation time, f VII def 25% (endogenous coagulation [4]): 113.0 s

N[C@@H](CO)C(=O)O [H2N—CH—(CH2OH)—COOH]
Coagulation time, CCN (endogenous coagulation [1]): 210.9 s | Coagulation time, CCP (endogenous coagulation [1]): 189.3 s | Coagulation time, Heparins Batch 0811 (endogenous coagulation [1]): >300.0 s | Coagulation time, Lupus Batch 021 (endogenous coagulation [1]): 232.6 s | Coagulation time, Pool N LIK 800 (endogenous coagulation [1]): 245.0 s | Coagulation time, f VII def 25% (endogenous coagulation [4]): 153.0 s
